This is an account of results in patent publication EP0244728B1, “Use of heteroarylethyl amines to stimulate animal growth, heteroarylethyl amines and process for their preparation” (BAYER AG, priority 1986, dated 1987).

Structures are written as SMILES.

A short description of the experiment: Rat feeding trial (Ratten-Fütterungsversuch), Beispiel A. The format is in vivo. The conditions noted are these: Dosis 100 ppm in feed ad lib; female SPF Wistar rats, 90-110 g; 13-day trial; control without active substance = 100. An excerpt:
Weibliche Laborratten 90-110 g schwer vom Typ SPF Wistar (Züchtung Hagemann) werden ad lib mit Standard Rattenfutter, das mit der gewünschten Menge Wirkstoff versetzt ist, gefüttert. Jeder Versuchsansatz wird mit Futter der identischen Charge durchgeführt, so daß Unterschiede in der Zusammensetzung des Futters die Vergleichbarkeit der Ergebnisse nicht beeinträchtigen können.
Die Ratten erhalten Wasser ad lib.
Jeweils 12 Ratten bilden eine Versuchsgruppe und werden mit Futter, das mit der gewünschten Menge Wirkstoff versetzt ist gefüttert. Eine Kontrollgruppe erhält Futter ohne Wirkstoff. Das durchschnittliche Körpergewicht sowie die Streuung in den Körpergewichten der Ratten ist in jeder Versuchsgruppe gleich, so daß eine Vergleichbarkeit der Versuchsgruppen untereinander gewährleistet ist.
Während des 13-tägigen Versuchs werden Gewichtszunahme und Futterverbrauch bestimmt.
Compound `CC(C)(C)NCC(O)c1cc(Cl)nc(Cl)c1` (stereo not shown) [compound 1] yielded a Gewichtszunahme of 110. The same measure for `CC(C)(C)NCC(O)c1cnc(N)c(Cl)c1` (stereo not shown) [compound 3]: 115; for `CC(C)(C)NCC(O)c1ccc(N)c(Cl)n1` (stereo not shown) [compound 6]: 110. As for `CC(C)NCC(O)c1ccc(N)cn1` (stereo not shown) [compound 7], the figure is 120.
